The values that follow are results of earlier work, collected in patent US11872302B2, “Product for dyeing keratinous material, containing aminosilicone, a chromophoric compound and ester oil” (Henkel AG & Co. KGaA, priority 2019, dated 2024).

For the data set the following is noted: 25° C.

For the compound `O=C(O)C1=NN(c2ccc(S(=O)(=O)O)cc2)C(=O)C1N=Nc1ccc(S(=O)(=O)O)cc1` (stereo not shown) [Acid Yellow 23, 4,5-dihydro-5-oxo-1-(4-sulfophenyl)-4-((4-sulfophenyl)azo)-1H-pyrazole-3-carboxylic acid], the “solubility in water, in words” value is on record as “highly soluble in water”.

As for `O=S(=O)(O)c1ccc(N=Nc2c(O)ccc3ccccc23)cc1` [Acid Orange 7, 4-[(2-hydroxy-1-naphthyl)azo]benzene sulphonate], the solubility in water result was “more than 7 g/L”. As to `CCN(Cc1cccc(S(=O)(=O)O)c1)c1ccc(C(=C2C=CC(=[N+](CC)Cc3cccc(S(=O)(=O)O)c3)C=C2)c2ccccc2S(=O)(=O)[O-])cc1` [Acid Blue 9], the solubility in water result was “more than 20 wt. %”. For the compound `O=[N+]([O-])c1cc([N+](=O)[O-])c2ccc(S(=O)(=O)O)cc2c1O` [Acid Yellow 9, 8-hydroxy-5,7-dinitro-2-naphthalenesulfonic acid], the solubility in water entry is “above 40 g/L”.
